Reference: patent US20250179519A1, “PROCESS TO ENHANCE VIRAL VECTOR PRODUCTION IN CELL-CULTURE USING GLYCYL-GLUTAMINE” (Evonik Operations GmbH, priority 2022, published 2025)
Peptide text beside a SMILES is read from it.

What was measured:
HEK Expi293F cells = test: Transfection efficiency via GFP expression by flow cytometry; format: cell-based; settings: for transfection efficiency: 96 h post transfection, 8 mM supplement
Experimental: (§1) A lab study to evaluate the influence of glutamine-dipeptides on viral vector production (AAV8) was conducted. HEK293 cells (HEK Expi293F cells, Thermo Fisher Scientific) were pre-cultured in shake flasks in a commercial culture medium recommended for viral vector production (Freestyle F17 Expression medium, Gibco, Thermo Fisher Scientific). After thawing the cells in 20 ml of the respective media variant (final concentration of glutamine or glutamine dipeptide in media variants was 8 mM) in 125 mL shake flasks, they were cultivated for five passages at 37° C. (185 rpm/50 mm orbit, 5% CO2) following a passaging rhythm of 3-4 days. For production, cells were split into three replicates each with a seeding viable cell density of 2×10^6 cells/mL (day 0) in 22 mL of the respective media variant. They were transfected with polyethylenimine (PEI MAX, Polysciences) with a 2-plasmid system for AAV8 (Plasmid Factory) featuring green fluorescent protein (GFP) as gene of interest 24 hours after inoculation (day 1). Again, media variants were supplemented by glutamine (Gln), alanyl-glutamine (Ala-Gln, via the liquid supplement, GlutaMAX™, Gibco, Thermo Fisher Scientific) or glycyl-glutamine hydrate (Gly-Gln, cQrex® GQ, Evonik Operations) to a final concentration glutamine or glutamine dipeptide of 8 mM (each n=3).
(§2) To analyze cell culture performance in the different media supplementations viable cell density and viability were determined via automated cell counter. Ammonium (fluorometric approach) as well as glucose and lactate concentration (enzymatic-amperometric method) were determined during preculture and AAV8 production phase on samples from one shake flask per supplement. Transfection efficiency was determined via GFP expression by flow cytometry 48, 72 and 96 h post-transfection. For AAV8 titer determination, samples of all replicates (supernatants only) were taken 96 and 120 h post-transfection and analyzed via qPCR (genomic titer) and ELISA (capsid titer).

mouse hybridoma (CC9C10) = settings: CC9C10 culture; Gly-Gln 20 mM, Ala-Gln 6 mM; cited from earlier work
[1] = compared with glutamine; cited from earlier work
[2] = system: AAV8 production in HEK Expi293F cells; test: Genomic AAV8 titer from supernatant by qPCR; format: cell-based; settings: 8 mM supplement; for genomic AAV8 titer: supernatant
Experimental: as §1, §2

[3] = system: AAV8 production in HEK Expi293F cells; test: AAV8 capsid titer from supernatant by ELISA; format: cell-based; settings: 96 h and 120 h post transfection
Experimental: A lab study to evaluate the influence of glutamine-dipeptides on viral vector production (AAV8) was conducted. HEK293 cells (HEK Expi293F cells, Thermo Fisher Scientific) were pre-cultured in shake flasks in a commercial culture medium recommended for viral vector production (Freestyle F17 Expression medium, Gibco, Thermo Fisher Scientific). After thawing the cells in 20 ml of the respective media variant (final concentration of glutamine or glutamine dipeptide in media variants was 8 mM) in 125 mL shake flasks, they were cultivated for five passages at 37° C. (185 rpm/50 mm orbit, 5% CO2) following a passaging rhythm of 3-4 days. […]
as §2

[4] = at 20° C. in water; cited from earlier work
[5] = system: AAV8 production in HEK Expi293F cells; test: Full/empty ratio (genomic titer vs. capsid titer); format: cell-based; settings: from mean values
Experimental: In a preferred embodiment, the “full/empty ratio” shall be defined as viral genome titer (vg) divided by viral particle titer (vp). A suitable method to determine vg is quantitative polymerase chain reaction (qPCR). A suitable method to measure vp titer including intact virions and empty capsids is serotype-specific enzyme-linked immunosorbent assay (ELISA).
as §2
The full/empty ratio (ratio genomic titer in vg/mL vs. capsid titer in vp/mL) was calculated using the mean values for both sampling points (FIG. 11). The full/empty ratio varied between 14-22% for the 96 h post transfection time point and between 13-21% for the 120 h post transfection time point. […]

NC(=O)CC[C@H](N)C(=O)O [Gln, L-glutamine]
transfection efficiency (HEK Expi293F cells): 98% | monoclonal antibody production (mouse hybridoma (CC9C10)): comparable

C[C@H](N)C(=O)N[C@@H](CCC(N)=O)C(=O)O [Ala-Gln, alanyl-glutamine, reference compound] (H-Ala-Gln-OH)
stability during autoclaving and storage [1]: comparably stable | transfection efficiency (HEK Expi293F cells): 98% | cell yields (mouse hybridoma (CC9C10)): high cell yields | monoclonal antibody production (mouse hybridoma (CC9C10)): comparable | genomic titer, comparison between supplements [2]: comparable to the other processes | capsid titer compared to cultures supplemented with Gln [3]: higher capsid titers

NCC(=O)N[C@@H](CCC(N)=O)C(=O)O.O [Gly-Gln, Glycyl-L-Glutamine hydrate] (H-Gly-Gln-OH)
stability during autoclaving and storage [1]: comparably stable | transfection efficiency (HEK Expi293F cells): 98% | transfection efficiency, comparison between supplements (HEK Expi293F cells; Gln vs Ala-Gln vs Gly-Gln, 8 mM): highest transfection efficiency | relative fluorescence, comparison between supplements (HEK Expi293F cells; all sampling points (48, 72, 96 h)): highest relative fluorescence | cell yields (mouse hybridoma (CC9C10)): high cell yields | monoclonal antibody production (mouse hybridoma (CC9C10)): comparable | genomic AAV8 titer ([2]; 96 h post transfection): 7.3×10^10 vg/mL | genomic AAV8 titer ([2]; 120 h post transfection): 8.2×10^10 vg/mL | solubility [4]: 154 mg/mL | capsid titer compared to cultures supplemented with Gln [3]: higher capsid titers | full/empty ratio ([5]; 96 h post transfection): 22% | full/empty ratio ([5]; 120 h post transfection): 21%
